We go through one molecule from publication PMC12316928, “Synthesis and evaluation of novel thiohydantoin derivatives for antidiabetic activity using in silico in vitro and in vivo methods” (Scientific Reports, 2025).

The nature of series [1]: DPPH free radical scavenging assay. As to the method: The antioxidant activity of synthesized compounds was evaluated using the DPPH free-radical scavenging assay, following the methodology outlined by[34]. This assay is based on the principle that the stable free radical DPPH undergoes a color change from deep purple to yellow upon reduction, indicating hydrogen donation from antioxidant compounds. Different concentrations (3.12, 6.25, 12.5, 25, 50, 100, and 200 µg/mL) of test compounds were prepared in methanol. A 200 µL aliquot of each concentration was mixed with 50 µL of freshly prepared DPPH solution (0.659 mM). The reaction mixtures were incubated at room temperature for 20 min in the dark. Absorbance was recorded at 510 nm using an ELISA microplate reader. Trolox was employed as the reference antioxidant, and the percentage of inhibition was calculated using the following equation:
% Inhibition = [(A0 − A1)/A0] × 100.
Where A0 is the absorbance of the control, and A1 is the absorbance of the sample[34].
In general terms: Loss of DPPH colour is used to gauge radical scavenging.

For series [2], the target named is T1, α-glucosidase (EC3.2.1.20) (Saccharomyces cerevisiae, UniProt P53341).
T1 construct: purchased Sigma-Aldrich
T1 sequence (P53341 whole entry): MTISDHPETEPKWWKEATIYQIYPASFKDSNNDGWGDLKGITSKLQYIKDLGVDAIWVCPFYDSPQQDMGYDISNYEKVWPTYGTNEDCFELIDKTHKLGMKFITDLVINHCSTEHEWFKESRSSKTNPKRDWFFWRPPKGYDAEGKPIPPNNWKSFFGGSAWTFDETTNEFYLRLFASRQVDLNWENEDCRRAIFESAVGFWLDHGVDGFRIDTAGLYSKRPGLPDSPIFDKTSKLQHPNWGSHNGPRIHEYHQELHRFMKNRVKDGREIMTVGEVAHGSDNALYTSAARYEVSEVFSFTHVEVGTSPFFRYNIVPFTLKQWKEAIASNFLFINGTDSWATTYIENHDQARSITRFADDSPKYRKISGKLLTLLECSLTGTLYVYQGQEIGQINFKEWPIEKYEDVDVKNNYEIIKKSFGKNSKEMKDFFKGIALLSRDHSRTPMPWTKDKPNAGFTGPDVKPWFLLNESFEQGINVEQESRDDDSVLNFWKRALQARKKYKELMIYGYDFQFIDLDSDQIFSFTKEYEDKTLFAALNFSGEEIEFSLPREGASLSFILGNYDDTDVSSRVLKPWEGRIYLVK
Briefly: α-Glucosidase inhibitory activity assay. The class given is biochemical. The note with it: read-out: %Inhibition (200 µg/ml) alpha glucosidase. As to the method:
The ability of the synthesized compounds to inhibit α-glucosidase was determined as per the method described by[35]. […] After incubation at 37 °C for 10 min, the reaction was initiated by adding 25 µL of substrate (4 mM) and further incubating at 37 °C for 20 min. The absorbance was measured at 405 nm.

Another series addresses T2, α-amylase (Sus scrofa, UniProt P00690).
T2 sequence (P00690 16-511): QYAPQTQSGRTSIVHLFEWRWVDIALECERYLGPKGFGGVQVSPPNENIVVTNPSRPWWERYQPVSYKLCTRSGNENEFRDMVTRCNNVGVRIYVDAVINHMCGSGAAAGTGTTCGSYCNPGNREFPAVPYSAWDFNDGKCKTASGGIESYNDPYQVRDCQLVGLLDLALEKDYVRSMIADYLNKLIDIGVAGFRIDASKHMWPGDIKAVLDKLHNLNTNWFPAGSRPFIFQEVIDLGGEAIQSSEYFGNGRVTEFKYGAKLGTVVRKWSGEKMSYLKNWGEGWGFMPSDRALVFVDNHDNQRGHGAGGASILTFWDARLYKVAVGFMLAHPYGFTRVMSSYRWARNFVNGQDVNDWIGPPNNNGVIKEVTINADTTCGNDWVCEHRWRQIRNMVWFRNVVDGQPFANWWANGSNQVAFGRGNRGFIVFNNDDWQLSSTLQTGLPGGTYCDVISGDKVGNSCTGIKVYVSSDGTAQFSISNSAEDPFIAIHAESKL
Briefly: α-Amylase inhibitory activity assay (DNSA method). The class given is biochemical. As to the method: The inhibitory potential of the synthesized derivatives against α-amylase was determined using the DNSA (3,5-dinitrosalicylic acid) colorimetric method, as reported by Bernfeld[37]. The α-amylase enzyme (from Sigma-Aldrich) was prepared in 20 mM sodium phosphate buffer (pH 6.9). […] After incubation, 100 µL of DNSA reagent was added, and the mixture was heated at 85 °C for 15 min. The reaction was stopped by cooling, and the absorbance was measured at 595 nm. A blank control was prepared to adjust background absorbance, and the percentage inhibition was calculated.

A short description of a further series: Cytotoxicity MTT assay. The class given is cell-based. Conditions: mouse, 3T3 fibroblast cells, 48 h, Mean ± SD, n = 3, read-out: IC₅₀ cytotoxicity MTT. As to the method: (§1) The cytotoxic effects of the selected compounds were evaluated against the 3T3 fibroblast cell line (Sigma-Aldrich, product no. 90020107) using the MTT (3-(4,5-dimethylthiazol-2-yl)−2,5-diphenyl tetrazolium bromide) assay, following the protocol established by Mosmann[38]. A cell suspension containing 1 × 10⁵ cells per well was seeded into a 96-well plate and incubated at 37 °C with 5% CO₂ for 48 h. The cells were then treated with different concentrations of test compounds (4, 16, 63, 250, and 1000 µg/mL, dissolved in DMSO) and incubated for an additional 48 h. Following incubation, 180 µL of MTT solution (5 mg/mL in PBS) was added to each well and incubated for 4 h. The formazan crystals formed were solubilized, and absorbance was measured at 570 nm using an ELISA reader. Celecoxib was used as a positive control.
Background: Tetrazolium assays rely on reduction of a dye to a coloured formazan, in cell work by metabolically active cells.

For a further series, the system named is 3T3 fibroblast cell line. Briefly: Cytotoxicity MTT assay. The class given is cell-based. As to the method: as §1
For series [3], the system named is STZ-induced diabetic rats. Put plainly: Effect on FBG, body weight and HbA1C over 6 weeks. The class given is in vivo, Sprague Dawley rats. Also on record: % Reduction in FBG: concentration or dose not given beside the values. As to the method: (§2) Diabetes will be induced in rats (n = 6 per group) by a single intraperitoneal injection of 60-100 mg/kg body weight (BW) streptozotocin dissolved in normal saline. After 5 days of streptozotocin injection, the tail vein blood will be collected to determine the fasting blood glucose (FBG) level. Only rats with FBG over 200 mg/dl will be considered diabetic and used for further experimentation.
Diabetic Rats (n = 6 per group) will be randomly assigned to groups of six animals each in order to examine the impact of synthetic derivatives on FBG level, BW, and HbA1C. The course of treatment will last for six weeks. At the beginning of the experiment and at weekly intervals during the first 42 days of therapy, the FBG level and BW will be measured. Rats will be denied food for 12 h while fasting, but they will have unrestricted access to water. Commercial glucose oxidase kits will be used to measure the blood glucose level. Blood 7 will be collected through cardiac puncture at the end of study period and levels of HbA1C will be determined. Metformin will be used as standard for comparison purpose.

The subject of series [4] is STZ-induced diabetic rats. Briefly: Physiological parameters (lipid profile). The class given is in vivo, Sprague Dawley rats. The note with it: Fig. 1. As to the method:
as §2
Animals will be sacrificed after […] of treatment and parameters including LDL, triglycerides, HDL cholesterol, and glucose will be determined by using KONELAB SYSTEM (Thermo Fisher Scientific, Finland) according to manufacturer’s guidelines.

The test system of series [5] is STZ-induced diabetic rats. Put plainly: Fasting blood glucose and oral glucose tolerance test (OGTT). The class given is in vivo, Sprague Dawley rats. As to the method: […] After 5 days of streptozotocin injection, the tail vein blood will be collected to determine the fasting blood glucose (FBG) level. Only rats with FBG over 200 mg/dl will be considered diabetic and used for further experimentation.
This assay will be performed in animals after fasting for an overnight (12 h). Then, rats will receive a bolus of glucose (2.0 g/kg body weight) followed by test molecule or control and plasma glucose will be measured from blood collected from tail vein at 0, 30, 60, 90 and 120 min after glucose administration. Plasma glucose levels will be analyzed using commercially available glucometer kits[40].

Where “and” joins values, the source holds several entries; their conditions need not be identical. Equal values may be shown once. Entries after “also recorded” stand apart in the source; their conditions may differ.

For the molecule `CC(=O)Nc1ccc(S(=O)(=O)N2CC(=O)NC2=S)cc1` [FP1, N-[4-(4-oxo-2-sulfanylideneimidazolidine-1-sulfonyl)phenyl]acetamide], the “IC₅₀ (concentration required to inhibit 50% of DPPH free radicals)” value in series [1] is on record as 76.5 ± 2.9 µg/mL. Also, the “DPPH free radical scavenging % inhibition” value in series [1] (3.12 µg/mL) is recorded as 12.5 ± 1.1%; in series [1] (6.25 µg/mL), 24.7 ± 1.8%; in series [1] (12.5 µg/mL), 38.1 ± 2.3%; in series [1] (25 µg/mL) it was 51.5 ± 2.7%; in series [1] (50 µg/mL), 58.9 ± 2.9%; in series [1] (100 µg/mL) it was 63.4 ± 3.0%. Besides, the “DPPH free radical scavenging % inhibition” value in series [1] (200 µg/mL) was 67.3 ± 3.2%. For the same molecule, the inhibition at 200 µg/mL in series [2] worked out at 45.7 ± 1.12%. At α-amylase, the “alpha-amylase inhibition in words” value is reported as “lack of inhibition”. The IC50 at 48 h in the series “Cytotoxicity MTT assay” was greater than 900 µg/mL. The Cytotoxicity category result in the series with 3T3 fibroblast cell line is given as “negligible cytotoxicity; also recorded: Non-toxic”. For the same molecule, the “IC₅₀ cytotoxicity MTT” value in the series with 3T3 fibroblast cell line (48 h, Mean ± SD, n = 3) is greater than 1000 ± 0.0 µg/mL. Besides, the “BW (Day 0)” value in series [3] (Day 0, baseline) is listed as 217.5 ± 8.3 g. Moreover, the “FBG (Day 0)” value in series [3] (Day 0, baseline) worked out at 282.8 ± 10.3 mg/dL. In addition, the “% Change in BW” value in series [3] (Day 0 to Day 42) was −8.7%. In series [3] (Day 0 to Day 42), the “% Reduction in FBG” value is recorded as 17.6%. In addition, in series [3] (Day 42 of treatment), the “BW (Day 42)” value is given as 198.6 ± 7.8 g. Besides, the “FBG (Day 42)” value in series [3] (Day 42 of treatment) worked out at 232.9 ± 9.7 mg/dL. The HbA1C in series [3] (end of 6-week treatment) was 8.1% and 8.1 ± 0.4%. In addition, in series [4], the “lipid profile effect in words” value is listed as “marginal effects”. Besides, the “OGTT (after 120 min)” value in series [5] (120 min after glucose 2.0 g/kg) turned out to be 310.3 ± 10.7 mg/dL. Moreover, in series [5] (Table 7, mean ± SD, 5 rats per group), the Fasting blood glucose worked out at 245.9 ± 8.2 mg/dL. Further, the “FBG and OGTT reduction in words” value in series [5] (compared to diabetic control) is “mild but significant activity”.
